Source: patent publication US20250331521A1, “NITROGEN-CONTAINING HETEROCYCLIC COMPOUND HAVING AN OXIME GROUP, AGRICULTURAL OR HORTICULTURAL HERBICIDE COMPRISING THE COMPOUND, AND METHOD FOR USING THE COMPOUND OR THE HERBICIDE” (NIHON NOHYAKU CO., LTD., priority 2022, published 2025)

Test system: Barnyard grass (Echinochloa crus-galli)
Test: Test Example 1: post-emergence herbicidal effect against paddy weeds
Type: in vivo
Details: 144 h, active ingredient concentration 10 ppm, drop treatment in hydroponic medium, 30° C., full light, six days after treatment, compared to non-treatment group, read-out: herbicidal effect against barnyard grass (score, degree of growth inhibition)
Experimental: Test Example 1: Test for Post-Emergence Herbicidal Effect Against Paddy Weeds Barnyard grass (Echinochloa crus-galli) was seeded and grown in test tubes containing hydroponic medium in an artificial climate chamber or a phytotron. Agrochemical formulations containing the compounds of the present invention as active ingredients prepared according to Formulation Example 1 were separately diluted with water so that the concentration of the active ingredient would be a predetermined concentration and used for drop treatment of the barnyard grass. The barnyard grass was grown in the artificial climate chamber at 30° C. under full light conditions. Six days after agrochemical treatment, the herbicidal effect was evaluated as compared to the non-treatment group according to the following criteria. Criteria for Herbicidal Effect (Degree of Growth Inhibition) and Phytotoxicity • Score 4 90% to 100% herbicidal effect • Score 3 70% to 89% herbicidal effect • Score 2 40% to 69% herbicidal effect • Score 1 1% to 39% herbicidal effect • Score 0 0% herbicidal effect

Row | SMILES | inhibition at 10 ppm
1 | CCO/N=C(\N)c1ccc(S(=O)(=O)NC)c(-c2nc(-c3ccccc3)nn2C)n1 [Compound No. 1-4, (Z)-N′-ethoxy-6-(1-methyl-3-phenyl-1H-1,2,4-triazol-5-yl)-5-(N-methylsulfamoyl)picolinimidamide] | 70 to 89%
2 | CCO/N=C(\N)c1ccc(S(=O)(=O)NC)c(-c2nc(-c3ccccc3)cn2C)n1 [Compound No. 2-33, (Z)-N′-ethoxy-6-(1-methyl-4-phenyl-1H-imidazol-2-yl)-5-(N-methylsulfamoyl)picolinimidamide] | 70 to 89%
3 | CCO/N=C(\N)c1ccc(S(=O)(=O)NC)c(-n2nc(-c3ccccc3)nc2C)n1 [Compound No. 3-3, (Z)-N′-ethoxy-6-(5-methyl-3-phenyl-1H-1,2,4-triazol-1-yl)-5-(N-methylsulfamoyl)picolinimidamide] | 70 to 89%
4 | CCO/N=C(\N)c1ccc(S(=O)(=O)NC)c(-n2nc(-c3ccccc3)cc2C)n1 [Compound No. 4-6, (Z)-N′-ethoxy-6-(5-methyl-3-phenyl-1H-pyrazol-1-yl)-5-(N-methylsulfamoyl)picolinimidamide] | 70 to 89%
5 | CCO/N=C(\N)c1ccc(C(=O)OCC)c(-c2nn(-c3ccccc3)c(=O)n2C)n1 [Compound No. 5-3, (Z)-ethyl 6-(N′-ethoxycarbamimidoyl)-2-(4-methyl-5-oxo-1-phenyl-4,5-dihydro-1H-1,2,4-triazol-3-yl)nicotinate] | 70 to 89%
6 | CCO/N=C(\C)c1ccc(S(C)(=O)=O)c(-n2c(C)nn(-c3ccccc3)c2=O)n1 [Compound No. 6-1, (E)-4-(6-(1-(ethoxyimino)ethyl)-3-(methylsulfonyl)pyridin-2-yl)-3-methyl-1-phenyl-1H-1,2,4-triazol-5(4H)-one] | 70 to 89%
7 | CCO/N=C(\N)c1ccc(C(=O)OCC)c(-c2nc(-c3ccccc3)sc2C)n1 [Compound No. 7-1, (Z)-ethyl 6-(N′-ethoxycarbamimidoyl)-2-(5-methyl-2-phenylthiazol-4-yl)nicotinate] | 70 to 89%
8 | CCO/N=C(\N)c1ccc(S(=O)(=O)NC)c(-c2csc(-c3ccccc3)n2)n1 [Compound No. 7-18, (Z)-N′-ethoxy-5-(N-methylsulfamoyl)-6-(2-phenylthiazol-4-yl)picolinimidamide] | 70 to 89%
9 | CCO/N=C(\N)c1ccc(S(=O)(=O)NC)c(-c2nc(-c3ccccc3)cs2)n1 [Compound No. 8-2, (Z)-N′-ethoxy-5-(N-methylsulfamoyl)-6-(4-phenylthiazol-2-yl)picolinimidamide] | 70 to 89%
10 | CCO/N=C(\N)c1ccc(S(C)(=O)=O)c(-c2nc(-c3ccccc3)cs2)n1 [Compound No. 8-17, (Z)-N′-ethoxy-5-(methylsulfonyl)-6-(4-phenylthiazol-2-yl)picolinimidamide] | 70 to 89%
11 | CCO/N=C(\N)c1ccc(S(=O)(=O)NC)c(-c2nn(-c3ccccc3)cc2C)n1 [Compound No. 10-2, (Z)-N′-ethoxy-6-(4-methyl-1-phenyl-1H-pyrazol-3-yl)-5-(N-methylsulfamoyl)picolinimidamide] | 70 to 89%
12 | CCO/N=C(\N)c1ccc(S(C)(=O)=O)c(-c2nn(-c3ccccc3)cc2C)n1 [Compound No. 10-16, (Z)-N′-ethoxy-6-(4-methyl-1-phenyl-1H-pyrazol-3-yl)-5-(methylsulfonyl)picolinimidamide] | 70 to 89%
13 | CCO/N=C(\N)c1ccc(S(C)(=O)=O)c(-c2nn(-c3ccccc3[N+](=O)[O-])nc2C)n1 [Compound No. 11-95, (Z)-N′-ethoxy-6-(5-methyl-2-(2-nitrophenyl)-2H-1,2,3-triazol-4-yl)-5-(methylsulfonyl)picolinimidamide] | 70 to 89%
14 | CCO/N=C(\N)c1ccc(S(=O)(=O)NC)c(-c2nc(-c3ccccc3Cl)nn2C)c1 [Compound No. 17-2, (Z)-3-(3-(2-chlorophenyl)-1-methyl-1H-1,2,4-triazol-5-yl)-N′-ethoxy-4-(N-methylsulfamoyl)benzimidamide] | 70 to 89%
15 | CCO/N=C(\N)c1ccc(S(=O)(=O)NC)c(-n2nc(C)c(-c3ccccc3)n2)n1 [Compound No. 20-17, (Z)-N′-ethoxy-6-(4-methyl-5-phenyl-2H-1,2,3-triazol-2-yl)-5-(N-methylsulfamoyl)picolinimidamide] | 70 to 89%
